Source: ChEMBL document CHEMBL1130798, “Structure based design: novel spirocyclic ethers as nonpeptidal P2-ligands for HIV protease inhibitors” (Bioorg Med Chem Lett, 1998)

Key:
MT4 = assay: Compound was evaluated for the inhibition spread of HIV-1 in MT-4 human T-lymphoid cells infected with IIIB isolate; assay type: functional; conditions: read-out: ID50 (the source's name)
[1] = target: Human immunodeficiency virus type 1 protease (Human immunodeficiency virus 1, UniProt Q72874); assay: Compound was evaluated for binding affinity against HIV protease

Compound: CCC[C@]1(O)CCO[C@@H](C(=O)N[C@@H](Cc2ccccc2)[C@H](O)CN(CC(C)C)S(=O)(=O)c2ccc(OC)cc2)C1
- IC50 (MT4): 3400 nM
- Ki [1]: 150 nM

Compound: CC(C)(C)NC(=O)C1CC2CCCCC2CN1C[C@@H](O)[C@H](Cc1ccccc1)NC(=O)[C@H](CC(N)=O)NC(=O)c1ccc2ccccc2n1 (single isomer, unassigned)
- IC50 (MT4): 18000 nM

Compound: COc1ccc(S(=O)(=O)N(CC(C)C)C[C@@H](O)[C@H](Cc2ccccc2)NC(=O)C2CC3(CCCC3)CCO2)cc1 (stereo not given in full)
- Ki [1]: 1500 nM

Compound: CCC[C@@]1(O)CCO[C@H](C(=O)N[C@@H](Cc2ccccc2)[C@H](O)CN(CC(C)C)S(=O)(=O)c2ccc(OC)cc2)C1
- IC50 (MT4): > 10000 nM
- Ki [1]: 480 nM

Compound: COc1ccc(S(=O)(=O)N(CC(C)C)C[C@@H](O)[C@H](Cc2ccccc2)NC(=O)[C@H]2C[C@@]3(CCCO3)CCO2)cc1
- IC50 (MT4): 9100 nM
- Ki [1]: 400 nM

Compound: COc1ccc(S(=O)(=O)N(CC(C)C)C[C@@H](O)[C@H](Cc2ccccc2)NC(=O)[C@@H]2C[C@@]3(CCCO3)CCO2)cc1
- IC50 (MT4): 2400 nM
- Ki [1]: 20 nM

Compound: COc1ccc(S(=O)(=O)N(CC(C)C)C[C@@H](O)[C@H](Cc2ccccc2)NC(=O)[C@@H]2C[C@]3(CCCO3)CCO2)cc1
- IC50 (MT4): 4500 nM
- Ki [1]: 150 nM

Compound: CCC[C@]1(O)CCO[C@H](C(=O)N[C@@H](Cc2ccccc2)[C@H](O)CN(CC(C)C)S(=O)(=O)c2ccc(OC)cc2)C1
- Ki [1]: > 1000 nM

Compound: CCC[C@@]1(O)CCO[C@@H](C(=O)N[C@@H](Cc2ccccc2)[C@H](O)CN(CC(C)C)S(=O)(=O)c2ccc(OC)cc2)C1
- Ki [1]: > 1000 nM

Compound: COc1ccc(S(=O)(=O)N(CC(C)C)C[C@@H](O)[C@H](Cc2ccccc2)NC(=O)[C@H]2C[C@]3(CCCO3)CCO2)cc1
- Ki [1]: > 2000 nM
